Source: PMC8854749, “Celastrol Inhibits Canine Mammary Tumor Cells by Inducing Apoptosis via the Caspase Pathway” (Frontiers in Veterinary Science, 2022)
Peptide text beside a SMILES is read from it. * marks the point of attachment. Cbz = O=C(OCc1ccccc1)*; CH2F = FC*

Key:
Experiment in all cases: Western blot of apoptosis- and cell cycle-related proteins
Type in all cases: cell-based, canine
CIPp cells [1] = conditions: inhibitor with celastrol, 24 h, vs celastrol alone
Description: (§1) The CMT-7364 and CIPp cells were treated with different concentrations of Caspase inhibitor Z-V-F and/or celastrol for 24 h, and the cells were lysed with RIPA lysis buffer on ice. The protein was extracted according to the manufacturer's instructions, and protein concentration was determined by the BCA protein concentration assay kit. The loading amount of 20 μg protein in each group was separated by 10% SDS-PAGE, the separated protein was transferred to polyvinylidene fluoride membrane. After blocking with 5% skimmed milk for 1 h, the membrane was washed two times with 0.5% PBS-Tween 20 (PBS-T), then the membrane with the primary antibody was incubated overnight in a shaker at 4°C. Primary antibodies include β-actin (1:2,000), p65 (1:1,000), NF-κB (1:1,000), Caspase-9 (1:1,000), Caspase-3 (1:1,000), Bax (1:2,000), Bcl-2 (1:1,000), Cyclin D1 (1:1,000), p21 (1:1,000), and p27 (1:1,000). After washing 3 times with PBS-T buffer for 10 min each time, the membrane was incubated with HRP-conjugated secondary antibody at 37°C for 30 min. Secondary antibodies include anti-mouse IgG antibody (1:5,000), anti-rabbit IgG antibody (1:2,000~1:4,000). The membrane was washed 3 times with PBS-T for 10 min each time. Finally, it was detected by an enhanced chemiluminescence detection system, and the results were quantified by ImageJ.

CMT-7364 cells [2] = conditions: inhibitor with celastrol, 24 h, vs celastrol alone
Description: as §1

CMT-7364 cells [3] = conditions: inhibitor with 0.9 μM celastrol, 24 h
CIPp cells [4] = conditions: inhibitor with 0.9 μM celastrol, 24 h

With COC(=O)C[C@H](NC(=O)[C@H](C)NC(=O)[C@@H](NC(=O)OCc1ccccc1)C(C)C)C(=O)CF [Z-V-F, Z-VAD-FMK] (Cbz-Val-Ala-Asp(OMe)-CH2F) the “expression of anti-apoptotic protein Bcl-2” value (CIPp cells [1]) was “increased”, the “expression of pro-apoptotic protein Bax induced by celastrol” value (CIPp cells [1]) was “decreased” and the “expression of anti-apoptotic protein Bcl-2” value (CMT-7364 cells [2]) was “increased”. For the same compound, the “expression of pro-apoptotic protein Bax induced by celastrol” value (CMT-7364 cells [2]) was “decreased”, the “effect on 0.9 μM celastrol-induced apoptosis” value (CMT-7364 cells [3]) was “block” and the “effect on 0.9 μM celastrol-induced apoptosis” value (CIPp cells [4]) was “block”.
